Laboratory results from ChEMBL document CHEMBL3507680, “University of Dundee, Gates Library screen for HepG2 cell viability”.

Assay: Human HepG2 cell viability assay in 384 well format
Assay type: toxicity, cell-based
Set-up: dose 125 nL, time 70.5 hour; concentration not given beside the values
Settings: HepG2 cells, read-out: Inhibition

Row | Compound | cytotoxicity at 70.5 h [%]
1 | COc1ccccc1CN1CC[C@H]2C[C@@H](C(=O)N3CCCC3)O[C@H]2C1 | -7.49
2 | O=C(NCc1cc(F)cc(Br)c1)C1(O)CCSCC1 | -4.03
3 | Cn1ccnc1CN1CCN(Cc2ccccc2C#N)CC1 | 6.78
4 | CC(C)c1cccc(-n2cc(O)c(C(N)=O)n2)c1 | 25.8
5 | Cc1nc(CN2CCN(c3ccc(Cl)cn3)CC2)no1 | -6.61
6 | CC(=O)N1CCc2cc(Cl)cc(Cl)c2C1 | -5.27
7 | Cc1ccc2c(c1)CCC21CCN(C(=O)CN(C)C)CC1 | -1.12
8 | CC(=O)NCC(=O)N1CCN(CCN(C)C)c2ncccc2C1 | -14.2
9 | Cc1nc(-c2ccco2)ccc1C(=O)N1CCc2nnc(N)cc2C1 | -1.99
10 | O=C(NCCNc1cnccn1)N1CCN(Cc2cccnc2)CC1 | 33.3
11 | O=C1COc2cc(C(=O)NS(=O)(=O)c3ccccc3F)ccc2N1 | 21.7
12 | CCO[C@H]1CN(C(=O)c2ccnnc2)[C@@H]2COC[C@H]12 | -10.7
13 | Cc1cccc(CN(Cc2ccccn2)S(=O)(=O)N(C)C)c1 | 18.6
14 | CC(c1ccncn1)N(C)Cc1cc2cc3c(cc2[nH]c1=O)OCO3 (stereo not given) | 3.45
15 | COc1ccc(C(=O)NC2CC2)c(OC2CCN(C(C)CO)CC2)c1 (stereo not given) | 0.736
16 | O=C(Cc1cccs1)NCC1(O)CCSCC1 | -3.88
17 | CNc1nc(CNC(=O)Nc2ccc(OC)cc2C)cs1 | -7.81
18 | CC(C)C(C)N(C(=O)Cn1nc2n(c1=O)CCCCC2)C1CC1 (stereo not given) | -11.4
19 | O=C(NC[C@H]1OC[C@@H](NC(=O)c2ccccc2)[C@@H]1O)c1ccncc1 | -0.603
20 | O=C(NCc1nnc2n1CCCCC2)N1CCc2sccc2C1 | -5.42
21 | CCN(Cc1cc(=O)n2cc(Br)ccc2n1)C1CC1 | -7.36
22 | Cc1nc(COC(=O)c2cccc3c2OCCO3)no1 | 23.5
23 | COc1ccc(CN2C[C@@H]3CN(C(=O)[C@H]4CCCO4)C[C@@H]3C2=O)cc1 | -4.12

Row | Compound | cytotoxicity at 70.5 h [%]
24 | CN(C)CCN1CCCC12CCN(C(=O)c1cccn1C)CC2 | -15.1
25 | CN(CCCC1CCCO1)S(=O)(=O)NCc1ccccc1 (stereo not given) | 10.8
26 | CC(C(=O)NCC(C)(C)c1ccc2c(c1)OCCO2)n1cncn1 (stereo not given) | 0.318
27 | O=C(NC1CCN(C2CC2)C1)c1cn(-c2ccc(F)cc2)nn1 (stereo not given) | -6.52
28 | CC(C)c1cc(C(=O)NCCCN(C)C)nc(N2CCCC2)n1 | -8.44
29 | O=C1CCC[C@]2(CN(S(=O)(=O)C3CCCCC3)C[C@H]2c2cccnc2)N1 | -3.41
30 | Cc1cnn(CCNCC(O)COc2cccc(C(F)(F)F)c2)c1 (stereo not given) | 0.0235
31 | O=C(NCCc1nncn1C1CC1)c1cc2ccccn2c1 | -10.9
32 | CC(=O)N(Cc1noc(C2CC2)n1)C1CCN(Cc2ccccn2)C1 (stereo not given) | -9.44
33 | CCC(C)[C@H](N)c1nnc(SCC(=O)Nc2ccc(Br)cc2)o1 (stereo not given in full) | -13.2
34 | COc1ccc(C)cc1CCNS(C)(=O)=O | -10.4
35 | CSCC(C)(O)CNC(=O)c1ccc(F)cc1Cl (stereo not given) | 0.551
36 | CCc1cc(C(=O)NCC2CCN(Cc3cccc(C#N)c3)C2)on1 (stereo not given) | -1.72
37 | Cc1ccccc1CNC(=O)N1C[C@H]2C[C@H](C(=O)N(C)C)[C@@H](C1)O2 | -5.69
38 | COCC1CN(Cc2sccc2C)Cc2nnn(CC3CC3)c21 (stereo not given) | -4.06
39 | CCC(CC)c1cc(CNC(=O)N2CCCN(C(C)=O)CC2)on1 | -3.25
40 | COCc1ccccc1C(=O)N1CCCC(n2nc(C)cc2C)C1 (stereo not given) | 24.9
41 | COC(=O)c1cccc(OCCn2nc(-c3cccs3)oc2=O)c1 | -21.5
42 | Cc1cc(C)n(CC2CN(CCOc3cccc(F)c3)CCO2)n1 (stereo not given) | 1.51
43 | Cc1nccc(C(=O)N2CCCN(Cc3nccn3C(C)C)CC2)n1 | -4.19
44 | c1ccc(-c2cc(CN3C[C@H]4CC[C@H]3C4)on2)cc1 | -4.67
45 | CN(C)C(CNC(=O)c1nc(N2CCCC2)ncc1Cl)c1ccco1 (stereo not given) | -17.5
